Experiment [1] deals with IL-23 induced STAT3 in HEK-Blue™ IL-23 cells. Put plainly: IL-23 induced STAT3 QUANTI-Blue reporter assay in HEK-Blue IL-23 cells. The experiment is classed as cell-based. The following applies: IL-23 0.1 ng/mL, SEAP levels, read-out: IL23 reporter assay (IC50 nM). The method, then:
Biological Example 2. IL-23 Induced STAT3 QUANTI-Blue in HEK-Blue™ IL-23 Cells
HEK-Blue™ IL-23 cells were prepared at 2×10^5 cells/ml for adding 5000 cell/well and incubate plates containing compounds+cells for 1 hour at 37° C. Prepare IL-23 (treatment at final conc. 0.1 ng/mL) during incubation and add 2 ul per well of prepared cytokine in media to appropriate wells. The plate is incubated for overnight at 37° C. The next day, QUANTI-Blue solution is prepared. 18 ul of QUANTI-Blue solution per well is added into a new 384-well clear flat bottom plate, then add 2 ul of induced and treated HEK-Blue cell supernatant from overnight plate. Incubate the plate at 37° C. for 2 hours and determine SEAP levels.

The target in experiment [2] is T1, N-terminal His-tagged TYK2 pseudokinase domain (Homo sapiens, UniProt P29597).
T1 construct: the N-terminal His-tagged TYK2 pseudokinase domain; His (N); purchased Pharmaron
Description: TYK2 JH2 domain SPA binding assay. The following applies: displacement of H3 probe (20 nM), 30 min room temperature; class symbols. The method, then:
TYK2 JH2 Domain Binding Assay
After incubating at room temperature for 30 min, the inhibition was calculated by the displacement of [3H] 3 binding as determined by scintillation counting. Dose-response curves were generated to determine the concentration required to inhibit H3 probe binding by […] (IC50).

[3] abbreviates: HEK-Blue IL-23 cells, class symbols.
[4] abbreviates: HEK-Blue IL-23, HEK-Blue IL-23 cells, class symbols.

Where two headings read alike, the source gives them in different places. Where only a bound is given, the exact number is not on record here.

T1 sequence (P29597 589-875 limits assumed): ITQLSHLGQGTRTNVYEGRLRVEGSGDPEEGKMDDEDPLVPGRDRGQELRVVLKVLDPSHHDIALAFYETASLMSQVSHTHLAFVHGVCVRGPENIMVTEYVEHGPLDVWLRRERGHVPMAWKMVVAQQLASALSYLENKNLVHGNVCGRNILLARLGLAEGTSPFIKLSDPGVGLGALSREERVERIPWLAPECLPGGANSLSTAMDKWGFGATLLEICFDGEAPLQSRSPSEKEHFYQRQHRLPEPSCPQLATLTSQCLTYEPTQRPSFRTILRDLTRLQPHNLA

Take `CNc1cc(Nc2cccn(-c3ccccn3)c2=O)nn2c(C(=O)NC3CCC4CCOC43)cnc12` (racemic) [Compound 10a, N-(hexahydro-2H-cyclopenta[b]furan-6-yl)-8-(methylamino)-6-((2-oxo-2H-[1,2′-bipyridin]-3-yl)amino)imidazo[1,2-b]pyridazine-3-carboxamide]: the IC50 in experiment [1] (setting [3]) and in experiment [2] was 10 to 100 nM each time.
As to `CNc1cc(Nc2cccn(-c3ccccn3)c2=O)nn2c(C(=O)NC3CCC4CCOC43)cnc12` (racemic) [Compound 10b, N-(hexahydro-2H-cyclopenta[b]furan-6-yl)-8-(methylamino)-6-((2-oxo-2H-[1,2′-bipyridin]-3-yl)amino)imidazo[1,2-b]pyridazine-3-carboxamide], the IC50 in experiment [1] (setting [3]) is ≥ 1000 nM; in experiment [2], > 1000 nM.
On to `CNc1cc(Nc2cccc3c2OCCC3)nn2c(C(=O)N[C@@H]3C[C@@H]4CCO[C@@H]43)cnc12` (racemic) [Compound 24], for which the 50% inhibitory concentration (IC50) in experiment [1] (setting [4]) and in experiment [2] was 10 to 100 nM in each case.
Consider `CNc1cc(Nc2cccc3c2OCCC3)nn2c(C(=O)N[C@@H]3C[C@H]4CCO[C@H]43)cnc12` (racemic) [Compound 25], for which the IC50 in experiment [1] (setting [4]) and in experiment [2] was < 10 nM in each case.
On to `CNc1cc(Nc2cccc3c2OCCC3)nc2c(C(=O)N[C@@H]3C[C@@H]4CCO[C@@H]43)cnn12` (racemic) [Compound 26], for which the 50% inhibitory concentration (IC50) in experiment [1] (setting [4]) and in experiment [2] was 10 to 100 nM throughout.
With `CNc1cc(Nc2cccc3c2OCCC3)nc2c(C(=O)N[C@@H]3C[C@H]4CCO[C@H]43)cnn12` (racemic) [Compound 27], the IC50 in experiment [1] (setting [4]) and in experiment [2] was < 10 nM throughout.
As for `CNc1cc(Nc2cccc(N3CCCC3=O)n2)nn2c(C(=O)NC(C)c3ncco3)cnc12` (racemic) [Compound 28], the IC50 in experiment [1] (setting [4]) was < 10 nM; in experiment [2] it was 10 to 100 nM.
As to `CNc1cc(Nc2cccc(N3CCCC3=O)n2)nn2c(C(=O)NC3CCn4ccnc43)cnc12` (racemic) [Compound 29], the IC50 in experiment [1] (setting [4]) and in experiment [2] was < 10 nM each time.
As for `[2H]C([2H])([2H])Nc1cc(Nc2cccc(N3CCCC3=O)n2)nn2c(C(=O)NC3C[C@@H]4CCOC34)cnc12` (mixture of isomers) [Compound 30], in experiment [1] (setting [4]), the IC50 was in the range of 10 to 100 nM.
On to `[2H]C([2H])([2H])Nc1cc(Nc2cccc(N3CCCC3=O)n2)nn2c(C(=O)NC3C[C@H]4CCOC34)cnc12` (mixture of isomers) [Compound 31], for which the half-inhibitory concentration (IC50) in experiment [1] (setting [4]) and in experiment [2] was < 10 nM throughout.
Turning to `CNc1cc(Nc2cccc(C)n2)nc2c(C(=O)NC3CCn4ccnc43)cnn12` (racemic) [Compound 32], the results for the IC50 in experiment [1] (setting [4]) and in experiment [2] were < 10 nM and 10 to 100 nM, respectively.
Regarding `CNc1cc(Nc2cccc(C)n2)nc2c(C(=O)NC3CCn4ncnc43)cnn12` (racemic) [Compound 33], the figures for the half-maximal inhibitory concentration (IC50) in experiment [1] (setting [4]) and in experiment [2] were < 10 nM and 10 to 100 nM, respectively.
With `CNc1cc(Nc2cccn(-c3ccccn3)c2=O)nn2c(C(=O)NC(C)c3ncco3)cnc12` (racemic) [Compound 34], the half-inhibitory concentration (IC50) in experiment [1] (setting [4]) and in experiment [2] was 10 to 100 nM in each case.
As to `[2H]C([2H])([2H])Nc1cc(Nc2cccn(-c3ccccn3)c2=O)nc2c(C(=O)NC(C)c3ncco3)cnn12` (racemic) [Compound 35], the IC50 in experiment [1] (setting [4]) and in experiment [2] was 10 to 100 nM throughout.
For the compound `CNc1cc(Nc2cccn(-c3ccccn3)c2=O)nc2c(C(=O)NC3CCc4conc43)cnn12` (racemic) [Compound 37], the IC50 is < 10 nM in experiment [1] (setting [4]) and 10 to 100 nM in experiment [2].
As to `[2H]c1onc2c1CCC2NC(=O)c1cnn2c(NC)cc(Nc3cccn(-c4ccccn4)c3=O)nc12` (racemic) [Compound 38], the results for the IC50 in experiment [1] (setting [4]) and in experiment [2] were < 10 nM and 10 to 100 nM, respectively.
Consider `CNc1cc(Nc2cccn(-c3ccccn3)c2=O)nc2c(C(=O)N[C@@H]3C[C@H]4CCO[C@H]43)cnn12` (racemic) [Compound 43], for which the IC50 in experiment [1] (setting [4]) and in experiment [2] was 10 to 100 nM throughout.
`CNc1cc(Nc2cccn(-c3ccn(C)n3)c2=O)nc2c(C(=O)NC(C)c3ncco3)cnn12` (racemic) [Compound 48]: the half-maximal inhibitory concentration (IC50) in experiment [1] (setting [4]) lay in the range of 10 to 100 nM.
`CNc1cc(Nc2cccn(-c3ccn(C)n3)c2=O)nc2c(C(=O)NC3C[C@@H]4CCOC34)cnn12` (mixture of isomers) [Compound 50]: the IC50 in experiment [1] (setting [4]) was in the range of 100 to 1000 nM.
The same measure, in the same setting: under `CNc1cc(Nc2cccn(-c3cc(C)on3)c2=O)nn2c(C(=O)NC3C[C@H]4CCOC34)cnc12` (mixture of isomers) [Compound 56] stands 10 to 100 nM.
With `CNc1cc(Nc2cccn(-c3ccccn3)c2=O)nc2c(C(=O)NC(C)c3ncco3)cnn12` (single isomer, unassigned) [Compound 36a], the IC50 in experiment [1] (setting [3]) was ≥ 1000 nM.
Regarding `CNc1cc(Nc2cccn(C3CC(C)(OC)C3)c2=O)nn2c(C(=O)N[C@@H]3C[C@H]4CCO[C@H]43)cnc12` (single isomer, unassigned) [Compound 92b], in experiment [1] (setting [3]), the IC50 was 10 to 100 nM.
`[2H]C([2H])([2H])NC(=O)c1nnc(NC(=O)C2CC2)cc1Nc1cccc(-c2ncn(C)n2)c1OC` [BMS-986165, reference compound]: the IC50 in experiment [1] (HEK-Blue IL-23 cells, numeric value (control)) was found to be 5.93 nM.
On to `CNc1cc(Nc2cccn(-c3ccccn3)c2=O)nn2c(C(=O)N[C@@H]3C[C@H]4CCO[C@H]43)cnc12` [Compound 2, N-((1R,5S,7R)-2-oxabicyclo[3.2.0]heptan-7-yl)-8-(methylamino)-6-((2-oxo-2H-[1,2′-bipyridin]-3-yl)amino)imidazo[1,2-b]pyridazine-3-carboxamide], for which the half-maximal inhibitory concentration (IC50) in experiment [1] (setting [4]) lay in the range of 10 to 100 nM.
The same measure, in the same setting: next, `CNc1cc(Nc2cccn(-c3ccn(C)n3)c2=O)nn2c(C(=O)N[C@@H]3C[C@H]4CCO[C@H]43)cnc12` [Compound 3a, N-((1R,5S,7R)-2-oxabicyclo[3.2.0]heptan-7-yl)-6-((1-(1-methyl-1H-pyrazol-3-yl)-2-oxo-1,2-dihydropyridin-3-yl)amino)-8-(methylamino)imidazo[1,2-b]pyridazine-3-carboxamide]: < 10 nM; `CNc1cc(Nc2cccn(-c3ccn(C)n3)c2=O)nn2c(C(=O)N[C@H]3C[C@@H]4CCO[C@@H]43)cnc12` [Compound 3b, N-((1S,5R,7S)-2-oxabicyclo[3.2.0]heptan-7-yl)-6-((1-(1-methyl-1H-pyrazol-3-yl)-2-oxo-1,2-dihydropyridin-3-yl)amino)-8-(methylamino)imidazo[1,2-b]pyridazine-3-carboxamide]: 100 to 1000 nM.
The same measure, in the same setting: next, `[2H]C([2H])([2H])Nc1cc(Nc2cccn(-c3ccccn3)c2=O)nn2c(C(=O)N[C@@H]3C[C@H]4CCO[C@H]43)cnc12` [Compound 4a, N-((1R,5S,7R)-2-oxabicyclo[3.2.0]heptan-7-yl)-8-((methyl-d3)amino)-6-((2-oxo-2H-[1,2′-bipyridin]-3-yl)amino)imidazo[1,2-b]pyridazine-3-carboxamide]: 10 to 100 nM.
As for `[2H]C([2H])([2H])Nc1cc(Nc2cccn(-c3ccccn3)c2=O)nn2c(C(=O)N[C@H]3C[C@@H]4CCO[C@@H]43)cnc12` [Compound 4b, N-((1S,5R,7S)-2-oxabicyclo[3.2.0]heptan-7-yl)-8-((methyl-d3)amino)-6-((2-oxo-2H-[1,2′-bipyridin]-3-yl)amino)imidazo[1,2-b]pyridazine-3-carboxamide], the half-maximal inhibitory concentration (IC50) in experiment [1] (setting [4]) was ≥ 1000 nM.
On to `[2H]C([2H])([2H])Nc1cc(Nc2cccn([C@H]3CC[C@H](OC([2H])([2H])[2H])CC3)c2=O)nn2c(C(=O)N[C@@H]3C[C@H]4CCO[C@H]43)cnc12` [Compound 11, N-((1R,5S,7R)-2-oxabicyclo[3.2.0]heptan-7-yl)-6-((1-((1r,4R)-4-(methoxy-d3)cyclohexyl)-2-oxo-1,2-dihydropyridin-3-yl)amino)-8-((methyl-d3)amino)imidazo[1,2-b]pyridazine-3-carboxamide], for which the concentration for half-maximal inhibition (IC50) in experiment [2] was < 10 nM.
For the compound `[2H]C([2H])([2H])Nc1cc(Nc2cccn(-c3ccccn3)c2=O)nn2c(C(=O)N[C@@H]3C[C@@H]3F)cnc12` [Compound 39], the IC50 in experiment [1] (setting [3]) was < 10 nM.
`CNc1cc(Nc2cccn(-c3nn(C)cc3F)c2=O)nn2c(C(=O)N[C@@H]3C[C@@H]3F)cnc12` [Compound 60]: the IC50 in experiment [1] (setting [4]) was 10 to 100 nM.
For the compound `[2H]C([2H])([2H])Nc1cc(Nc2cccn(C3CCC4(CC3)COC4)c2=O)nc2c(C(=O)N[C@@H]3C[C@H]4CCO[C@H]43)cnn12` [Compound 67], the IC50 in experiment [1] (setting [4]) fell in the range of 10 to 100 nM.
For `[2H]C([2H])([2H])Nc1cc(Nc2cccn([C@H]3CC[C@@H](OC)CC3)c2=O)nn2c(C(=O)N[C@@H]3C[C@@H]3F)cnc12` [Compound 71], the IC50 in experiment [1] (setting [4]) lay in the range of 10 to 100 nM.
Regarding `[2H]C([2H])([2H])Nc1cc(Nc2cccn(C3CCC4(CC3)COC4)c2=O)nc2c(C(=O)N[C@@H]3C[C@@H]3F)cnn12` [Compound 74], in experiment [1] (setting [4]), the 50% inhibitory concentration (IC50) is 10 to 100 nM.
The same measure, in the same setting: under `[2H]C([2H])([2H])Nc1cc(Nc2cccn(C3C[C@H]4CC[C@@H](C3)O4)c2=O)nc2c(C(=O)N[C@@H]3C[C@H]4CCO[C@H]43)cnn12` (stereo partly shown) [Compound 77] stands 10 to 100 nM; under `[2H]C([2H])([2H])Nc1cc(Nc2cccn(C3C[C@H]4CC[C@@H](C3)O4)c2=O)nn2c(C(=O)N[C@@H]3C[C@H]4CCO[C@H]43)cnc12` (stereo partly shown) [Compound 78], 10 to 100 nM.

For the origin of these results see patent US20240335443A1, “IMIDAZOLOPYRIDAZINE OR PYRAZOLOPYRIMIDINE COMPOUNDS AND COMPOSITIONS” (Anrui Biomedical Technology (Guangzhou) Co., Ltd., priority 2021, published 2024).
